Legend:
[1] = test system: cartilage tissue (articular cartilage, distal end of a femur); experiment: Immersion of a distal end of a femur of a normal mouse in a cartilage tissue visualization reagent solution, ex vivo fluorescence microscopy; details: room temperature, 1 hour, GFP filter; for staining of cartilage (fluorescence signal, FIG. 2): 0.1 mM solution in saline; for staining of cartilage (fluorescence signal, FIG. 1): 0.1 mM solution in saline containing 25% ethanol
Procedure: Two normal C57B6/J strain mouse (8 week old, female) were prepared. The animals were euthanized by ether deep anesthesia and a distal end of a femur was excised. The sample was immersed in 100 μL of a 0.1 mM lysine oligomer derivative solution at room temperature for 1 hour. After 1 hour, the sample was washed twice with buffered saline. This was embedded in 4% CMC compound, frozen in hexane/liquid nitrogen, and cut into thin slices with a thickness of 7 μm using a tungsten carbide blade TC-65 (Leica) for a hard tissue slice and Cryofilm (Leica) in a cryostat without decalcification. The slice was thawed at room temperature for 10 sec, immersed in 100% ethanol for about 30 sec, stored in 4% paraformaldehyde (PFA) for a while, washed with tap water, and then subjected to fluorescence microscopy. An optical filer was a GFP filter. A lysine peptide was labeled with a fluorescence agent NBD, so that its signal was detected.
Here, a solvent of the solution of a lysine oligomer derivative was saline containing 25% ethanol. FIG. 1 is an enlarged image of an articular cartilage area in a sagittal plane of a knee joint in a distal end of a femur. The broken line indicates a tide-mark which is a boundary plane between a cartilage and a calcified cartilage layer.
Here, a solvent of the solution of a lysine oligomer derivative was saline. FIG. 2 is an enlarged image of an articular cartilage area in a sagittal plane of a knee joint in a distal end of a femur. […] For any of compounds 26 to 29, staining of a cartilage tissue was observed. However, staining of compound 26 containing only one lysine unit was slight. […] The white (green in a color photo) regions in the cartilage layer correspond to a part stained by a compound. Some of the circular regions (blue in a color photo) correspond to nuclear stain parts by Hoechst, which were also observed in the calcified layer.

| Structure (SMILES) | staining of cartilage (fluorescence signal, FIG. 2) [1] | melting point [°C] | staining of cartilage (fluorescence signal, FIG. 1) [1] |
| --- | --- | --- | --- |
| NCCCC[C@H](N)C(=O)NCCNc1ccc([N+](=O)[O-])c2nonc12 [Compound 26] | slight | 151.4 to 153.9 | – |
| NCCCC[C@H](N)C(=O)NCCCC[C@H](N)C(=O)NCCCC[C@H](N)C(=O)NCCNc1ccc([N+](=O)[O-])c2nonc12 [Compound 27] | adequately stained | 183.3 to 184.7 | Staining was observed in the cartilage tissue |
| NCCCC[C@H](N)C(=O)NCCCC[C@H](N)C(=O)NCCCC[C@H](N)C(=O)NCCCC[C@H](N)C(=O)NCCNc1ccc([N+](=O)[O-])c2nonc12 [Compound 28] | further strongly stained | – | – |
| NCCCC[C@H](N)C(=O)NCCCC[C@H](N)C(=O)NCCCC[C@H](N)C(=O)NCCCC[C@H](N)C(=O)NCCCC[C@H](N)C(=O)NCCNc1ccc([N+](=O)[O-])c2nonc12 [Compound 29] | further strongly stained | – | – |
| N=C(N)NCCNc1c(I)cc(C(=O)NCCCC[C@H](NC(=O)c2cc(I)c(NCCNC(=N)N)c(I)c2)C(=O)NCCCC[C@H](NC(=O)c2cc(I)c(NCCNC(=N)N)c(I)c2)C(=O)NCCCC[C@H](NC(=O)c2cc(I)c(NCCNC(=N)N)c(I)c2)C(=O)NCCNc2ccc([N+](=O)[O-])c3nonc23)cc1I [Compound 42] | – | 189.4 to 191.5 | Staining was observed in the cartilage tissue |
| NCCNc1c(I)cc(C(=O)NCCCC[C@H](NC(=O)c2cc(I)c(NCCN)c(I)c2)C(=O)NCCCC[C@H](NC(=O)c2cc(I)c(NCCN)c(I)c2)C(=O)NCCCC[C@H](NC(=O)c2cc(I)c(NCCN)c(I)c2)C(=O)NCCNc2ccc([N+](=O)[O-])c3nonc23)cc1I [Compound 43] | – | 192.9 to 195.7 | staining was confined to the surface tissue |

From patent US20150080551A1, “LYSINE OLIGOMER DERIVATIVE AND CARTILAGE TISSUE MARKER MADE THEREOF” (NATIONAL UNIVERSITY CORPORATION OKAYAMA UNIVERSITY, priority 2012, published 2015)
